Each structure is given as a SMILES string. Values joined by “and” are separate entries in the source; they are usually repeats but may differ in a detail not shown here. Equal values may be shown once. Read-outs that look alike come from different tables or passages of the source.

The values that follow come from US20260034119A1, “5-METHOXY-N,N-[…][…], THEIR […], AND METHODS FOR TREATMENT OF NEUROLOGICAL, […], AND SUBSTANCE USE DISORDERS” (priority 2023, published 2026).

Test [1] deals with T1, human 5-HT1A (Homo sapiens, UniProt P08908).
T1 sequence (P08908 1-422): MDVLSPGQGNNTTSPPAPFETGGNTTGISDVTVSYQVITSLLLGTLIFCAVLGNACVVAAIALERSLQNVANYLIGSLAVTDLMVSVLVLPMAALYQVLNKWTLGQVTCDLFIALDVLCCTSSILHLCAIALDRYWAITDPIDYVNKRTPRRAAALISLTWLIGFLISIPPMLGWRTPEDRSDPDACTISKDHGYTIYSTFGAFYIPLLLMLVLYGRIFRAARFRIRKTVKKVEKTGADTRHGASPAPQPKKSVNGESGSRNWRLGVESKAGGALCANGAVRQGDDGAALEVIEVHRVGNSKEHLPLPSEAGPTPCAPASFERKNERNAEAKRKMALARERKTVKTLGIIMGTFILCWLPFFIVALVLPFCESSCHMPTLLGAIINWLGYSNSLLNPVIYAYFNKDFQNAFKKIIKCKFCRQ
Put plainly: 5-HT1A-mediated cAMP reduction assay (GloSensor, HEK293-T).

Test [2] deals with T2, 5-HT1A (Homo sapiens, UniProt P08908). Briefly: cell-based.
The target of a further test is 5-HT2A (Homo sapiens, UniProt P28223). Put plainly: cell-based.
The target in test [3] is T1, human 5-HT1A. Put plainly: cell-based.
The target in test [4] is T2, 5-HT1A. Briefly: BRET signaling assay: 5-HT1A-mediated activation of heterotrimeric Gi1 (TRUPATH, HEK293-T).
[5] abbreviates: EC50 (nM) Mean Gio(cAMP)-1A, Table 2.
[6] abbreviates: Activity (5-HT1A cAMP) EC50 (nM), Table 5.
[7] abbreviates: EC50 (nM) 5-HT1A cAMP, Table 6, commercial ligands.

Chain of 5-HT2A (P28223 whole entry): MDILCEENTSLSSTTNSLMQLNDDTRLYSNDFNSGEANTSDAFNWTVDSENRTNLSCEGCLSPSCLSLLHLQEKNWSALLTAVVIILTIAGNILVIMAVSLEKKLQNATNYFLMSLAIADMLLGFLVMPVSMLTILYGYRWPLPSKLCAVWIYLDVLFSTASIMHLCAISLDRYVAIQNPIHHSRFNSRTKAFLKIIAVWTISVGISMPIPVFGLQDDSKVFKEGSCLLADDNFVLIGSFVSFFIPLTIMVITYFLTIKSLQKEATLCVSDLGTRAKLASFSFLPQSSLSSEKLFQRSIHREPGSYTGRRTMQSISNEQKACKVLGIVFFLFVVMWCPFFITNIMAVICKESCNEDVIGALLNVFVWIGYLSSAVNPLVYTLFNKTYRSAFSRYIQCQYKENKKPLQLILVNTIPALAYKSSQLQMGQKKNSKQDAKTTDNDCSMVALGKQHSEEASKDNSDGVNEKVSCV

Turning to `CC[C@H]1C[C@@H]2C=C[C@H]1N(CCc1c[nH]c3ccc(OC)c(F)c13)C2` [Compound 15], the EC50 at human 5-HT1A [1] (setting [5]) was determined as 47.3 nM; on human 5-HT1A [1] (pEC50 Gio(cAMP)-1A, Table 2), 46.8 nM.

For `C=CCN(C)CCc1c[nH]c2ccc(OC)cc12` [Compound 16], the EC50 was 42.7 nM on 5-HT1A [2]; 24.5 nM and 25.7 nM on 5-HT2A; 9.64 nM at human 5-HT1A [3].

As to `CN(C)CCc1c[nH]c2ccc(O)c(F)c12` [Compound 16], the EC50 on 5-HT2A (EC50 (nM) Mean BRET Gq-2A, Table 2) turned out to be 7.46 nM; on human 5-HT1A [1] (pEC50 Gio(cAMP)-1A, Table 2), 0.251 nM; at 5-HT1A [4] (EC50 (nM) Mean BRET Gi1-1A, Table 2), 1.13 nM.

On human 5-HT1A [1] (setting [5]), `CCN(CC)CCc1c[nH]c2ccc(O)c(F)c12` [Compound 17] had an EC50 of 0.76 nM.

In the case of `COc1ccc2[nH]cc(CCN3CCCC3)c2c1` [Compound 18], the EC50 on 5-HT1A [2] was 2.13 nM; on 5-HT2A, 81.5 nM; on human 5-HT1A [3], 0.16 nM and 0.166 nM.

Consider `Oc1ccc2[nH]cc(CCN3CCCC3)c2c1F` [Compound 18], for which the half-maximal effective concentration (EC50) was determined as 0.04 nM at human 5-HT1A [1] (setting [5]) and 0.0417 nM at human 5-HT1A [1] (pEC50 Gio(cAMP)-1A, Table 2).

`COc1ccc2c(c(CCN3CCCC3)cn2C)c1F` [Compound 19]: the EC50 at human 5-HT1A [1] (setting [5]) came out at 100 nM.

Consider `CCN(CC)CCc1c[nH]c2ccc(OC)c(F)c12` [Compound 27, N,N-diethyl-2-(4-fluoro-5-methoxy-1H-indol-3-yl)ethan-1-amine], for which the EC50 on 5-HT1A [2] was 3.18 nM; at 5-HT2A, 673 nM; at human 5-HT1A [3] it was 0.21 nM and 0.204 nM.

Take `COc1ccc2[nH]cc(CCN3CCCCC3)c2c1F` [Compound 36, 4-fluoro-5-methoxy-3-(2-(piperidin-1-yl)ethyl)-1H-indole]: the figures for the 50% effective concentration (EC50) at 5-HT1A [2] and on human 5-HT1A [3] were 8.97 nM and 2.42 nM, respectively.

In the case of `CN(C)CCc1c[nH]c2ccc(O)cc12` [Compound 49, Bufotenine, reference compound], the EC50 on 5-HT1A [2] came out at 9.29 nM.

For the compound `CN(C)CCc1c[nH]c2cccc(O)c12` [Compound 52, Psilocin, reference compound], the 50% effective concentration (EC50) is 1080 nM and 1070 nM on 5-HT1A [2]; 512 nM at human 5-HT1A [3].

The compound `CN(C)CCc1c[nH]c2ncccc12` [Compound 72, N,N-dimethyl-2-(1H-pyrrolo[2,3-b]pyridin-3-yl)ethan-1-amine] had an EC50 on human 5-HT1A [1] (setting [6]) of 1910 nM.

As to `CCN(CC)CCc1c[nH]c2ncccc12` [Compound 73, N,N-diethyl-2-(1H-pyrrolo[2,3-b]pyridin-3-yl)ethan-1-amine], a half-maximal effect on human 5-HT1A [1] (setting [6]) (EC50) was put at 7800 nM.

`c1cnc2[nH]cc(CCN3CCCC3)c2c1` [Compound 74, 3-(2-(pyrrolidin-1-yl)ethyl)-1H-pyrrolo[2,3-b]pyridine] came in with an EC50 at human 5-HT1A [1] (setting [6]) of 3240 nM.

Turning to `c1cnc2[nH]cc(CCN3CCCCC3)c2c1` [Compound 75, 3-(2-(piperidin-1-yl)ethyl)-1H-pyrrolo[2,3-b]pyridine], the midpoint of the response at human 5-HT1A [1] (setting [6]), the EC50, lay at 18500 nM.

As to `COc1ccc2occ(CCN(C)C)c2c1` [Compound 76, 2-(5-methoxybenzofuran-3-yl)-N,N-dimethylethan-1-amine], a half-maximal response at human 5-HT1A [1] (setting [6]) (EC50) required 178 nM.

At human 5-HT1A [1] (setting [6]), `COc1ccc2occ(CCN3CCCC3)c2c1` [Compound 77, 1-(2-(5-methoxybenzofuran-3-yl)ethyl)pyrrolidine] returned an EC50 of 7.19 nM.

In turn, `COc1ccc2occ(CCN3CCCCC3)c2c1` [Compound 78, 1-(2-(5-methoxybenzofuran-3-yl)ethyl)piperidine] yielded an EC50 at human 5-HT1A [1] (setting [6]) of 416 nM. Against the preceding compound, the EC50 is about 58-fold higher.

Regarding `COc1ccc2occ(CCN3CC=CCC3)c2c1` [Compound 79, 1-(2-(5-methoxybenzofuran-3-yl)ethyl)-1,2,3,6-tetrahydropyridine], on human 5-HT1A [1] (setting [6]), the midpoint of the response, the EC50, lay at 7130 nM.

As to `CC1(C)CC(=O)N(CCCCN2CCN(c3ncccn3)CC2)C(=O)C1` [Gepiron, Gepirone, reference compound], the “Efficacy as %5HT 5-HT1A cAMP” value at human 5-HT1A [1] (Table 6, commercial ligands) amounted to 95.4 %5HT.

On to `c1ccc2c(N3CCNCC3)cccc2c1` [N-(1-naphthyl)piperazine, N-(1-Napthyl)piperazine, reference compound], for which a half-maximal response at human 5-HT1A [1] (setting [7]) (EC50) required 50.3 nM. Also, the “Efficacy as %5HT 5-HT1A cAMP” value on human 5-HT1A [1] (Table 6, commercial ligands) is 137.0 %5HT.

In the case of `O=C1[C@@H]2[C@H]3CC[C@H](C3)[C@@H]2C(=O)N1CCCCN1CCN(c2ncccn2)CC1` [Tandospirone, reference compound], on human 5-HT1A [1] (setting [7]), the EC50 was 1.51 nM. Also, the “Efficacy as %5HT 5-HT1A cAMP” value on human 5-HT1A [1] (Table 6, commercial ligands) came out at 96.3 %5HT.

Consider `N#Cc1ccc2[nH]cc(CCCCN3CCN(c4ccc5oc(C(N)=O)cc5c4)CC3)c2c1` [Vilazodone, vilazodone, reference compound], for which the “Efficacy as %5HT 5-HT1A cAMP” value at human 5-HT1A [1] (Table 6, commercial ligands) is 110.5 %5HT. Also, the “activity at concentrations as low as” value on 5-HT1A [4] (5-HT1A Gi1 BRET) turned out to be 30 pM. Moreover, the Emax at 5-HT1A [4] (HEK-293T, read-out: Emax, 5-HT1A-mediated activation of Gi1 (BRET)) is 97.4%. For the same compound, the “Efficacy as %5HT 5-HT1A BRET Gi1” value on 5-HT1A [4] (Table 6, commercial ligands) is given as 97.4 %5HT.

In general, EC50 refers to the concentration needed to bring the measured effect to its halfway point. Lower therefore signals an effect from little substance. What is called Emax is the size of the effect at its maximum, as opposed to the concentration needed.
